Experimental data published in paper PMC9782376 (2022).

Key:
[1] = test system: aptananozyme III (amino-DBA with (TGTA) spacer (3) on Ce4+-ion-modified C-dots) (DNA, aptamer) TGTACGACGCCAGTTTGAAGGTTCGTTCGCAGGTGTGGAGTGACGTCG; experiment: ITC; details: 100 mM NaCl, 5 mM MgCl2; 5 mM MES pH 5.5; aptamer immobilised on Ce4+-C-dots; 20 µM aptananozyme, 600 µM dopamine titrant
[2] = test system: aptananozyme IV (amino-DBA with (TGTA)2 spacer (4) on Ce4+-ion-modified C-dots) (DNA, aptamer) TGTATGTACGACGCCAGTTTGAAGGTTCGTTCGCAGGTGTGGAGTGACGTCG; experiment: ITC; details: 100 mM NaCl, 5 mM MgCl2; 5 mM MES pH 5.5; aptamer immobilised on Ce4+-C-dots; 20 µM aptananozyme, 600 µM dopamine titrant
[3] = test system: aptananozyme V (amino-DBA with (TGTA)3 spacer (5) on Ce4+-ion-modified C-dots) (DNA, aptamer) TGTATGTATGTACGACGCCAGTTTGAAGGTTCGTTCGCAGGTGTGGAGTGACGTCG; experiment: ITC; details: 100 mM NaCl, 5 mM MgCl2; 5 mM MES pH 5.5; aptamer immobilised on Ce4+-C-dots; 20 µM aptananozyme, 600 µM dopamine titrant
[4] = test system: DBA (free dopamine binding aptamer) (DNA, aptamer) CGACGCCAGTTTGAAGGTTCGTTCGCAGGTGTGGAGTGACGTCG; details: conditions not stated

Kd [1]: 950 ± 30 nM
Kd [2]: 880 ± 40 nM
Kd [3]: 910 ± 100 nM
Kd [4]: 720 ± 30 nM
SMILES: NCCc1ccc(O)c(O)c1
